Earlier results in patent publication US8974795B2, “Controlled release formulation based on hematin anhydride crystals for the induction of an innate immune reaction” (priority 2010, dated 2015).
Like-named read-outs stand apart in the source and are kept apart here.

[1] = Table 1, medium strong organic acids

| pKa [1] | SMILES | pKa |
| --- | --- | --- |
| 4.58 | O=C(O)CCc1ccccc1Cl [3-(2-Chlorophenyl)propanoic acid] |  |
| 4.59 | O=C(O)CCc1cccc(Cl)c1 [3-(3-Chlorophenyl)propanoic acid] |  |
| 4.61 | O=C(O)CCc1ccc(Cl)cc1 [3-(4-Chlorophenyl)propanoic acid] |  |
| 4.05 | CC(Cl)CC(=O)O (stereo not drawn) [3-Chlorobutanoic acid] |  |
| 4.19 | O=C(O)Cc1ccc(Cl)cc1 [4-Chlorophenylacetic acid] |  |
| 3.94 | O=C(O)C(c1ccccc1)c1ccccc1 [Diphenylacetic acid] |  |
| 4.32 | Cc1cc(C)cc(C(=O)O)c1 [Mesitylenic acid] |  |
|  | C=CC1=C(C)c2cc3[n-]c(cc4[n-]c(cc5nc(cc1n2)C(C)=C5C=C)c(C)c4CCC(=O)O)c(CCC(=O)O)c3C.[Fe+2] [heme] | about 4.5 |

| SMILES | pKa [1] | pKa |
| --- | --- | --- |
| O=C(O)C(O)c1ccccc1 (racemic) [DL-Mandelic acid] | 3.85 |  |
| O=C(O)Cc1ccccc1Cl [2-Chlorophenylacetic acid] | 4.07 |  |
| O=C(O)Cc1cccc(Cl)c1 [3-Chlorophenylacetic acid] | 4.14 |  |
| CC(C(=O)O)c1ccccc1 (stereo not drawn) [α-Phenylpropanoic acid] | 4.64 |  |
